Common to all, as to format: functional, cell-based
The subject of one assay is SNB-19. Briefly: Cytotoxicity against human SNB19 cells after 2 days by XTT assay. The conditions noted are these: SNB-19, 48 h. (Tetrazolium assays rely on reduction of a dye to a coloured formazan, in cell work by metabolically active cells.)
In another assay the test system is COLO 205. Nature of the assay: Cytotoxicity against human COLO205 cells after 2 days by XTT assay. The conditions noted are these: COLO 205, 48 h.
In another assay the test system is MOLT-4. Nature of the assay: Cytotoxicity against human MOLT4 cells after 2 days by XTT assay. The settings on record: MOLT-4, 48 h.
The next assay has as its system OVCAR-3. Briefly: Cytotoxicity against human OVCAR3 cells after 2 days by XTT assay. The settings on record: OVCAR-3, 48 h.
A short description of assay [1]: Cytotoxicity against human LOX cells after 2 days by XTT assay. The conditions noted are these: 48 h.

This is an account of results in ChEMBL document CHEMBL1799909, “Lithothamnin A, the first bastadin-like metabolite from the red alga Lithothamnion fragilissimum” (J Nat Prod, 2011).

As usually defined, the IC50 is the concentration that gives 50% inhibition. Consider `O=C1NCCc2cc(Br)c(O)c(c2)Oc2cc(O)c(cc2Br)CCNC(=O)/C(=N/O)Cc2c(O)cc(Br)c(c2Br)Oc2cc(cc(Br)c2O)C/C1=N\O` [LITHOTHAMNIN A], for which the IC50 in the assay on SNB-19 amounted to 7.6 µM; in the assay with COLO 205, 19 µM; in the assay with MOLT-4, 19 µM; in the assay with OVCAR-3, 7.6 µM; in assay [1] it was 9.5 µM.
